Test results from paper PMC12591170, “Glabridin‐Gold(I) Complex as a Novel Immunomodulatory Agent Targeting TrxR and MAPK Pathways for Synergistic Enhancement of Antitumor Immunity” (Advanced Science, 2025).

Assays:
HepG2 cells = assay: MTT antiproliferative assay, HepG2; format: cell-based, human; settings: 72 h MTT assay, Mean ± SD
Experimental: (§1) All cells were incubated at 37 °C by DMEM complete medium (containing 1% penicillin−streptomycin and 12% FBS) in 5% CO2 incubator. 2–5 × 10^3 cells were cultured in 96‐well plates and each well contained 100 µL complete medium. OXA was dissolved in water, and all other complexes were dissolved in DMF. After cells adhered in the wells, different concentrations of complexes were diluted in 100 µL complete medium and added in the wells. The final volume in the each well was 200 µL and the content of DMF was maximum 0.5%. After 72 h incubation, the antiproliferative activity was tested by MTT assay.

[1] = Stability analysis by 1H NMR; format: physicochemical
Experimental: 5 mM of complex 6d was incubated with DMSO‐d6 or the mixed solution (DMSO‐d6 /D2O = 9:1) or the same mixed solution with 5 mM of GSH for different times (0 – 72 h), and the ^1H NMR spectra were acquired. The stability of AF was determined by the same method.

[2] = test system: MAPK pathway (phosphorylated MEK1/2 and ERK1/2); assay: Western blot of MAPK pathway in HepG2; format: cell-based, human; settings: HepG2, 24 h
Experimental: (§2) HepG2 cells were incubated in 6 cm culture dishes and treated with different complexes. The treated cells were lysed with lysis buffer (RIPA:PMSF:phosphatase inhibitor:protease inhibitor = 100:1:1:1). The lysed cells were further broken by sonication, and proteins were isolated by centrifugation. The protein concentrations were detected by BCA assay. 10% SDS PAGE gel was usually applied to separate the different kDa of proteins, and more than 200 kDa of proteins were separated using 8% SDS PAGE gel. After seperation, proteins were transferred onto polyvinylidene difluoride (PVDF) membranes. The target proteins were labeled by various specific primary antibodies at 4 °C overnight. Then, the membranes were treated with anti‐rabbit or anti‐mouse secondary antibody for 2 h. Tris buffered saline with tween 20 (TBST) was applied to wash the membranes after each operation above. The target proteins’ bands were detected by the enhanced chemiluminescence (ECL) procedure.

PD-L1 [3] = assay: PD-L1 expression in HepG2 (western blot, immunofluorescence, flow cytometry); format: cell-based, human; settings: HepG2, 24 h
Experimental: as §2
5 × 10^4 HepG2 cells were treated with complexes in 24‐well plates for 24 h. Subsequently, cells were fixed with 4% paraformaldehyde. Various specific antibodies were added for incubation at 4 °C overnight after cells were permeabilized with Triton X‐100 (except for membrane proteins) and blocked with BSA. Then, the cells were incubated with fluorescently‐labeled secondary antibodies in darkness for 2 h. After that, DAPI was added to stain nuclear in darkness. PBS was applied for washing after each operation above (Tris buffered saline (TBS) was applied for washing if phosphorylated protein was analyzed). The cell images were captured by the fluorescence microscopy.
4 × 10^5 HepG2 cells were incubated in 6‐well plates, and complexes were added in the wells. The cells were collected after incubation, and the treated cells were labeled with probes or fluorescently‐labeled antibodies. A flow cytometer was applied to analyze the labeled cells.

phosphorylated Akt = assay: Western blot of phosphorylated Akt in HepG2; format: cell-based, human; settings: HepG2, 24 h; GLA at 8 µM
Experimental: as §2

HIF-1α = assay: Western blot of HIF-1α in HepG2; format: cell-based, human; settings: HepG2, 24 h
Experimental: as §2

Hepa1-6 tumors = assay: In vivo antitumor assay, Hepa1-6 tumors; set-up: species or system C57BL/6 mice; settings: after 13 days; 6d and OXA 5 mg kg^−1, GLA 10 mg kg^−1, i.p. every two days
[4] = test system: MAPK pathway (phosphorylated MEK1/2 and ERK1/2); assay: In vivo MAPK pathway in tumor tissue; set-up: species or system C57BL/6 mice; settings: western blot, day 13
PD-L1 [5] = assay: In vivo PD-L1 expression in tumor tissue; set-up: species or system C57BL/6 mice; settings: western blot, 13 days of treatment
[6] = test system: immune cells in Hepa1-6 tumor and spleen tissue; assay: In vivo immune cell and marker analysis (flow cytometry, immunofluorescence, immunohistochemistry); set-up: species or system C57BL/6 mice; settings: for DC maturation in spleen and tumor tissues / macrophage polarization in tumor: flow cytometry and immunofluorescence; for T lymphocyte infiltration in tumor: flow cytometry and immunohistochemistry; for MDSC infiltration in tumor / Treg infiltration in tumor (Foxp3): vs model group, 13 days
Hepa1-6 cells = assay: MTT antiproliferative assay, Hepa1-6; format: cell-based; settings: Mus musculus, Hepa1-6; 72 h MTT assay, Mean ± SD
Experimental: as §1

293T cells = assay: MTT assay, normal kidney cell line 293T; format: cell-based; settings: Homo sapiens, HEK-293T; 72 h MTT assay, Mean ± SD
Experimental: as §1

[7] = In vivo tolerability (body weight, survival, organ H&E)
Experimental: All mice were 6–8 weeks old males and procured from Hangzhou Medical College, located in Hangzhou, China. […] 2 × 10^6 Hepa1‐6 cells in 100 µL DMEM were subcutaneously seeded in underarms of C57BL/6 mice. […] Meanwhile, the mice weights and tumor volume were recorded, and the calculation formula of tumor volume was Volume = Width^2 × Length/2. After 13 days, all mice were sacrificed for collection of tumors, hearts, livers, spleens, lungs and kidneys. Collagenase IV (1 mg mL^−1) and DNase I (1 µg mL^−1) were applied to digest a part of the tumor tissue into cell suspension, and lysis buffer was used to remove red blood cells. The prepared cells above were stained with antibodies (anti‐CD3e‐FITC, and anti‐CD8a‐PE; anti‐CD11c‐APC, anti‐CD80‐PE, and anti‐CD86‐FITC; anti‐CD45‐Percp, anti‐CD11b‐APC, and anti‐Ly‐6G/Ly‐6C(Gr‐1)‐FITC; anti‐CD11b‐APC, anti‐CD206‐PE, and CD86‐FITC). CD3^+CD8^+ T cells, CD80^+CD86^+ DCs, CD11b^+Gr‐1^+ MDSCs, CD206^−CD86^+ M1‐type macrophages and CD206^+CD86^− M2‐type macrophages were analyzed by flow cytometry. Then, another part of tumor tissues were fixed with 4% paraformaldehyde, embedded in paraffin, cut into slices and stained with antibodies for immunofluorescence and immunohistochemistry analysis. H&E stain assays were applied for all tissue samples.

[8] = set-up: method as in PMID 30146723; settings: antitumor activity; cited from earlier work
[9] = Metabolic stability in whole blood; settings: mouse

SMILES | IC50 (HepG2 cells) [µM] | PD-L1 expression (western blot) (PD-L1 [3]) | Akt phosphorylation (western blot) (phosphorylated Akt) | tumor growth vs model group (Hepa1-6 tumors) | MAPK pathway activation (phosphorylation of MEK1/2 and ERK1/2) in tumor tissue [4] | DC maturation in spleen and tumor tissues [6] | macrophage polarization in tumor [6] | T lymphocyte infiltration in tumor [6] | Arg-1 expression in tumor tissue ([6]; immunofluorescence) | CRT exposure in tumor tissue ([6]; immunofluorescence) | MDSC infiltration in tumor [6] | Treg infiltration in tumor (Foxp3) [6] | IC50 (HepG2 cells; Homo sapiens, HepG2) [µM] | IC50 (Hepa1-6 cells) [µM] | IC50 (293T cells) [µM] | other results
CC(=O)OC[C@H]1O[C@@H]([S-])[C@H](OC(C)=O)[C@@H](OC(C)=O)[C@@H]1OC(C)=O.CCP(CC)CC.[Au+] [AF, auranofin, reference compound] | 3.54 ± 0.34 | upregulation | inhibited Akt phosphorylation | – | – | – | – | – | – | – | – | – | – | – | – | stability by 1H NMR [1]: remained stable; time after which 1H NMR spectra began to change / showed new peaks ([1]; 5 mM complex, DMSO-d6/D2O 9:1 containing GSH (5 mM)): 2 h; ERK1/2 phosphorylation (western blot, Figure S49) [2]: significantly enhancing ERK1/2 phosphorylation; HIF-1α expression (western blot) (HIF-1α): promoted
O=C1[O][Pt]2([NH][C@@H]3CCCC[C@H]3[NH]2)[O]C1=O [OXA, oxaliplatin] | 4.08 ± 0.97 | did not affect | – | significant tumor growth inhibition | promoted the phosphorylation | induced DC maturation | promoted M2‐type polarization | promoted T lymphocyte infiltration | promoted the expression | promoted CRT exposure | higher level of MDSC infiltration | higher number of infiltrated Tregs | – | – | – | phosphorylation of MEK1/2 and ERK1/2 (western blot) [2]: no effect; PD-L1 expression in tumor tissue (PD-L1 [5]): upregulated; GzmB expression in tumor tissue ([6]; immunofluorescence, OXA vs model group, 6d vs OXA group): did not increase obviously
CC1(C)C=Cc2c(ccc3c2OC[C@@H](c2ccc(OCCCCCBr)cc2OCCCCCBr)C3)O1 [3b] | – | – | – | – | – | – | – | – | – | – | – | – | > 20 | > 20 | > 20 | –
CC1(C)C=Cc2c(ccc3c2OC[C@@H](c2ccc(O)cc2O)C3)O1 [GLA, glabridin] | – | did not exhibit this effect | did not significantly affect Akt phosphorylation | did not show an obvious effect on tumor growth | significantly inhibited | induced DC maturation | significantly promoted M1‐type macrophage polarization | did not enhance T lymphocyte infiltration | downregulation | did not induce CRT exposure | reducing the infiltration | reducing the infiltration | 39.5 ± 4.68 | 37.6 ± 1.73 | 43.4 ± 4.47 | effect on mice body weight ([7]; 6d and OXA 5 mg kg^−1, GLA 10 mg kg^−1, i.p. every two days, OXA after nine days): no significant effect; organ tissue damage (H&E staining) ([7]; heart, liver, spleen, lung, kidney, day 13): did not cause noticeable damage to organ tissues; suggested minimum effective dose [8]: 10 mg/kg
CC(C)[N+](C)(CCOC(=O)C1c2ccccc2Oc2ccccc21)C(C)C [Propantheline bromide] | – | – | – | – | – | – | – | – | – | – | – | – | – | – | – | -k [9]: 0.0216; half-life [9]: 32.1 min; remaining at 0 h [9]: 100%; remaining at 5 min [9]: 88.5%; remaining at 0.25 h [9]: 66%; remaining at 0.5 h [9]: 47.5%; remaining at 1 h [9]: 21.8%; remaining at 2 h [9]: 7.63%
